Assay type: physicochemical
Details: kinetic solubility from DMSO stock, 1.0% DMSO, 24-hour incubation at ambient temperature, filtrate quantified by CLND
Method: 2. Kinetic Solubility Analysis (CLND: Total Chemiluminescent Nitrogen Determination)
The final DMSO Concentration is 1.0% and maximum theoretical compound concentration is […] (assuming stock concentration of 10 mM). The filter plate is sealed. Following 24-hour incubation at ambient temperature (21.7-23.8° C.), the samples are vacuum filtered, and the filtrates are collected in a 96 well polypropylene plate for analysis. The collection plate is sealed for analysis.
Filtrates are injected into the nitrogen detector for quantification on Analiza's Automated Discovery Workstation. The equimolar nitrogen response of the detector is calibrated using standards which span the dynamic range of the instrument from 0.08 to 4500 μg/ml nitrogen. The filtrates are quantified with respect to this calibration curve. The calculated solubility values are corrected for background nitrogen present in the DMSO, and the media used to prepare the samples. The 1×PBS buffer (pH 7.4) is prepared by adding 50 mL of phosphate buffered saline solution 10×, PBS (Fisher Bioreagent part number BP399-500) to approximately 450 mL HPLC grade H2O. The volume of the solution is then adjusted to 500 mL for a total dilution factor of 1:10 and a final PBS concentration of 1X.

Cc1cc(CC(=O)N[C@@H](CC(=O)O)C(=O)O)c(C(C)(C)CC(=O)N(c2nn(C)c3c(-n4c([C@H](Cc5cc(F)cc(F)c5)NC(=O)Cn5nc(C(F)F)c6c5C(F)(F)[C@@H]5C[C@H]65)nc5cc(-c6cccc(C(F)(F)F)n6)ccc5c4=O)ccc(Cl)c23)S(C)(=O)=O)c(OP(=O)(O)O)c1 [Compound 5, (2-(2-(4-(N-(4-Chloro-7-(2-((S)-1-(2-((3bS,4aR)-3-(difluoromethyl)-5,5-difluoro-3b,4,4a,5-tetrahydro-1H-cyclopropa[3,4]cyclopenta[1,2-c]pyrazol-1-yl)acetamido)-2-(3,5-difluorophenyl)ethyl)-4-oxo-7-(6-(trifluoromethyl)pyridin-2-yl)quinazolin-3(411)-yl)-1-methyl-1H-indazol-3-yl)methylsulfonamido)-2-methyl-4-oxobutan-2-yl)-5-methyl-3-(phosphonooxy)phenyl)acetyl)-L-aspartic acid]
pH 2 Solubility (μM) (pH 2 (medium 0.1N HCl)): 1.1 μM
pH 7 Solubility (μM) (pH 7 (medium 1×PBS buffer pH 7.4)): 76 μM

Source: patent publication US20250042926A1, “THERAPEUTIC COMPOUNDS FOR HIV” (priority 2023, published 2025)
